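Following 48 hours of exposure in 96-well plates, responses at five concentrations were used to interpolate endpoints linearly. Here, GI50 denotes the concentration required for 50% inhibition of growth.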 The source made the active and inactive calls. Rule as the data show it: active = GI50 up to about 1.1 µM and inactive = higher.
Assays:
Test in all cases: NCI anticancer screen, dose series, 48 h
A498 = test system: A498
BT-549 = test system: BT-549
HOP-62 = test system: HOP-62
Hs-578T = test system: Hs-578T
M14 = test system: M14
MDA-MB-435 = test system: MDA-MB-435
NCI-H226 = test system: NCI-H226
NCI-H23 = test system: NCI-H23
NCI-H522 = test system: NCI-H522
NCI/ADR-RES = test system: NCI/ADR-RES
OVCAR-3 = test system: OVCAR-3
OVCAR-8 = test system: OVCAR-8
RXF 393 = test system: RXF 393
SK-MEL-5 = test system: SK-MEL-5
SR = test system: SR
TK-10 = test system: TK-10
UACC-257 = test system: UACC-257
UACC-62 = test system: UACC-62
KM-20L2 = test system: KM-20L2
LXFL 529 = test system: LXFL 529

SMILES	GI50 (A498)	GI50 (BT-549)	GI50 (HOP-62)	GI50 (Hs-578T)	GI50 (M14)	GI50 (MDA-MB-435)	GI50 (NCI-H226)	GI50 (NCI-H23)	GI50 (NCI-H522)	GI50 (NCI/ADR-RES)	GI50 (OVCAR-3)	GI50 (OVCAR-8)	GI50 (RXF 393)	GI50 (SK-MEL-5)	GI50 (SR)	GI50 (TK-10)	GI50 (UACC-257)	GI50 (UACC-62)	GI50 (KM-20L2)	GI50 (LXFL 529)
CC(=O)Nc1ccc2[nH]c(C(=O)N3CC(CCl)c4c3cc(N)c3ccccc43)cc2c1 (stereo not given)	0.0176 µM (active)	< 0.0312 µM (active)	< 0.0152 µM (active)	< 0.01 µM (active)	0.0167 µM (active)	0.0147 µM (active)	< 0.0135 µM (active)	0.0102 µM (active)	< 0.01 µM (active)	0.0182 µM (active)	0.0189 µM (active)	< 0.0133 µM (active)	< 0.01 µM (active)	0.0115 µM (active)	< 0.01 µM (active)	< 0.0157 µM (active)	0.0172 µM (active)	0.0101 µM (active)		
CCCCCCCCCCCCCCCC(=O)OC1C(O)C(CO)OC(OC)C1NC(=O)N(CCCl)N=O (stereo not given)			15.4 µM (inactive)		18.4 µM (inactive)		16.6 µM (inactive)	7.94 µM (inactive)	10.7 µM (inactive)		18.7 µM (inactive)	17.8 µM (inactive)		13.2 µM (inactive)	4.46 µM (inactive)	15.5 µM (inactive)	16.3 µM (inactive)	2 µM (inactive)	17.9 µM (inactive)	12.6 µM (inactive)
NS(=O)(=O)C1CCCCC1C(=O)NNC(=O)C(=O)Nc1nnc(S)[nH]1 (stereo not given)	> 100 µM (inactive)		> 100 µM (inactive)		> 100 µM (inactive)		> 100 µM (inactive)	> 100 µM (inactive)	> 100 µM (inactive)			> 100 µM (inactive)	> 100 µM (inactive)	> 100 µM (inactive)	> 100 µM (inactive)	> 100 µM (inactive)	> 100 µM (inactive)	> 100 µM (inactive)	> 100 µM (inactive)	> 100 µM (inactive)
COc1ccc(N2CN(C)CSC2=S)cc1	> 100 µM (inactive)	75.5 µM (inactive)	25.9 µM (inactive)	> 100 µM (inactive)	38.5 µM (inactive)	43.3 µM (inactive)		> 100 µM (inactive)	29.7 µM (inactive)	> 100 µM (inactive)	4.73 µM (inactive)	> 100 µM (inactive)	> 100 µM (inactive)	> 100 µM (inactive)		> 100 µM (inactive)	> 100 µM (inactive)	> 100 µM (inactive)		
CO/N=C1/c2sccc2[C@H](NC(=O)C(F)(F)F)[C@@H]1O	> 100 µM (inactive)	> 100 µM (inactive)	> 100 µM (inactive)	> 100 µM (inactive)	> 100 µM (inactive)	> 100 µM (inactive)	> 100 µM (inactive)	> 100 µM (inactive)		> 100 µM (inactive)	> 100 µM (inactive)	> 100 µM (inactive)	> 100 µM (inactive)	> 100 µM (inactive)	> 100 µM (inactive)	> 100 µM (inactive)	> 100 µM (inactive)	> 100 µM (inactive)		
COc1ccc(-c2c3ccccc3c(-c3ccc(OCCCCCBr)cc3)c3ccccc23)cc1			> 100 µM (inactive)		> 100 µM (inactive)		> 100 µM (inactive)		> 100 µM (inactive)		> 100 µM (inactive)	> 100 µM (inactive)			> 100 µM (inactive)	> 100 µM (inactive)		> 100 µM (inactive)	> 100 µM (inactive)	> 100 µM (inactive)
O=C(N/N=C\c1cccc2ccccc12)Nc1ccccc1	> 100 µM (inactive)	> 100 µM (inactive)	> 100 µM (inactive)	> 100 µM (inactive)	> 100 µM (inactive)	> 100 µM (inactive)	> 100 µM (inactive)	> 100 µM (inactive)		> 100 µM (inactive)	> 100 µM (inactive)	> 100 µM (inactive)	> 100 µM (inactive)	> 100 µM (inactive)	> 100 µM (inactive)	> 100 µM (inactive)	> 100 µM (inactive)	> 100 µM (inactive)		
O=C1CCC(c2ccc(Cl)cc2)=NN1c1nsc2ccccc12			39.2 µM (inactive)		> 10 µM (inactive)			26.7 µM (inactive)			17.7 µM (inactive)	31.8 µM (inactive)	11.5 µM (inactive)	> 10 µM (inactive)	22.3 µM (inactive)	46.3 µM (inactive)	22.9 µM (inactive)	43.1 µM (inactive)	35.2 µM (inactive)	26.8 µM (inactive)
COC(=O)Cc1c(-c2c(CC(=O)OC)c3ccccc3n2C2OC(COC(C)=O)C(OC(C)=O)C(OC(C)=O)C2OC(C)=O)[nH]c2ccccc12 (stereo not given)	52.4 µM (inactive)	> 100 µM (inactive)	> 100 µM (inactive)		> 100 µM (inactive)	> 100 µM (inactive)		> 100 µM (inactive)	52 µM (inactive)		> 100 µM (inactive)			> 100 µM (inactive)	> 100 µM (inactive)	> 100 µM (inactive)	> 100 µM (inactive)	> 100 µM (inactive)		
CCCCCCc1ccc(O)cc1O [HEXYLRESORCINOL]	> 100 µM (inactive)		57.8 µM (inactive)				57.8 µM (inactive)	47.3 µM (inactive)	36.1 µM (inactive)	38.4 µM (inactive)	36.4 µM (inactive)	> 69 µM (inactive)	> 75.2 µM (inactive)	31.8 µM (inactive)			39.5 µM (inactive)	34.4 µM (inactive)	> 100 µM (inactive)	
O=C1CNC(=O)N1 [HYDANTOIN]	> 1120 µM (inactive)		> 1120 µM (inactive)				11.2 µM (inactive)	> 1120 µM (inactive)	> 1120 µM (inactive)	> 1120 µM (inactive)	> 1120 µM (inactive)	> 1120 µM (inactive)	> 1120 µM (inactive)	> 1120 µM (inactive)			> 1120 µM (inactive)	> 1120 µM (inactive)	> 1120 µM (inactive)	
CC(=O)CC(=O)CCC(=O)O [SUCCINYLACETONE]					> 100 µM (inactive)		> 100 µM (inactive)	> 100 µM (inactive)	> 100 µM (inactive)			> 100 µM (inactive)	> 100 µM (inactive)		> 100 µM (inactive)	> 100 µM (inactive)	> 100 µM (inactive)		> 100 µM (inactive)	
